Bridge positions count the residues as written; N and C are the ends. Peptide text beside a SMILES is read from it.
What was measured:
Experiment in all cases: biochemical
[1] = biological target: T1, dopamine transporter (DAT) (Rattus norvegicus, UniProt P23977)
T1 construct: brains were processed to yield synaptosomes as previously described; from tissue; host or cells: rat caudate synaptosomes

[2] = biological target: T2, serotonin transporter (SERT) (Rattus norvegicus, UniProt P31652)
T2 construct: brains were processed to yield synaptosomes as previously described; from tissue; host or cells: rat whole brain minus caudate and cerebellum, synaptosomes
T2 sequence (P31652 whole entry): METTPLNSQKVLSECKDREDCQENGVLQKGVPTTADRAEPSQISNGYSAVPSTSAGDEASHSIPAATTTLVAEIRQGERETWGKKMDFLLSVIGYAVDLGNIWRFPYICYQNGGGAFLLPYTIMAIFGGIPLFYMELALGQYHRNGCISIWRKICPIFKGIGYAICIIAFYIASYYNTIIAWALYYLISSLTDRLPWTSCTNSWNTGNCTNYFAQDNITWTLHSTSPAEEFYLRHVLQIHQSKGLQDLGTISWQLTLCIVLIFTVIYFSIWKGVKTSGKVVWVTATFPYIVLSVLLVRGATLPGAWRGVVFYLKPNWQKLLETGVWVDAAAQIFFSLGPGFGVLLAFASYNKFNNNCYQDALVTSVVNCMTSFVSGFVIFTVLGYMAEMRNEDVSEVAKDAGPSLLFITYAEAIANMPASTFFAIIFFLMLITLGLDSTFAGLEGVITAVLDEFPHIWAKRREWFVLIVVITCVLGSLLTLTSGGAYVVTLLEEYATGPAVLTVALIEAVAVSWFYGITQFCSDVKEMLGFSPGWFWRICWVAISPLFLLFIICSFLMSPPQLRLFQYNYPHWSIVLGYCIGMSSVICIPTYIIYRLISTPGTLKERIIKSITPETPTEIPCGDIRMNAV

[3] = biological target: T3, norepinephrine transporter (NET) (Rattus norvegicus, UniProt Q63380); assay type: biochemical
T3 construct: brains were processed to yield synaptosomes as previously described; from tissue; host or cells: rat whole brain minus caudate and cerebellum, synaptosomes
T3 sequence (Q63380 1-617): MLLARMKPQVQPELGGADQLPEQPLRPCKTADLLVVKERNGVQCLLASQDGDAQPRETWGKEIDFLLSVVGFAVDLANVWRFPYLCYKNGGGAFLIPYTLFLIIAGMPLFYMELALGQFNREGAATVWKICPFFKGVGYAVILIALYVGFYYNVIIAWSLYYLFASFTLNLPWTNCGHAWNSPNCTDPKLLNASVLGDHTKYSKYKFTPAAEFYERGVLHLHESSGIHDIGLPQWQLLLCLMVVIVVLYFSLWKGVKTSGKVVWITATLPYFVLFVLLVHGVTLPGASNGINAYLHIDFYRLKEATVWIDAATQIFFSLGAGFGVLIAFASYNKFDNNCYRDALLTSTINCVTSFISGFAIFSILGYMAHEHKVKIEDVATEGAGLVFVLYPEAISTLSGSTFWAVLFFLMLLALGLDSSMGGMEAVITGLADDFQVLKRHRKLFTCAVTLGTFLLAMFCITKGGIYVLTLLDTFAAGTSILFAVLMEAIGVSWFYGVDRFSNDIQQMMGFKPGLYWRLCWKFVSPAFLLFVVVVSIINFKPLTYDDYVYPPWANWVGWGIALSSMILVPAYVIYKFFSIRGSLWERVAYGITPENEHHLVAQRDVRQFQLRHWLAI

T1 sequence (P23977 whole entry): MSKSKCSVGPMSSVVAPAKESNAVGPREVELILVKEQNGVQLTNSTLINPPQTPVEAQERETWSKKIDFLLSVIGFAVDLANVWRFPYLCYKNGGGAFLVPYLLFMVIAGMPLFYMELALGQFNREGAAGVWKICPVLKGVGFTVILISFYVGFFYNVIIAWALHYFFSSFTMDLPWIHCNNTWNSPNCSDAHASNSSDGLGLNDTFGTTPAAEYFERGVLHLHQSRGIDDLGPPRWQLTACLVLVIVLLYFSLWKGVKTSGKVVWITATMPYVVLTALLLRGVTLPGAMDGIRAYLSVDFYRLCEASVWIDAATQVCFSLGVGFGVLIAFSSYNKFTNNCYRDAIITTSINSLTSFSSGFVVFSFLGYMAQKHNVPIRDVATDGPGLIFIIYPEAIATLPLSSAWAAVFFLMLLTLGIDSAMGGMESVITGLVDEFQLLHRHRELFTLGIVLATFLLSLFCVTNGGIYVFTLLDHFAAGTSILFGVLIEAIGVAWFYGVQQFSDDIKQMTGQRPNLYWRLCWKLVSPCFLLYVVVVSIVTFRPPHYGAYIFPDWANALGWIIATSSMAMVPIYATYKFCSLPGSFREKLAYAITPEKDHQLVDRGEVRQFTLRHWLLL

SMILES: CSCC[C@H](NC(=O)[C@H](CCCNC(=N)N)NC(=O)[C@H](Cc1ccc(O)cc1)NC(=O)CNC(=O)[C@@H]1CSSC[C@H](NC(=O)[C@@H](NC(=O)[C@@H](N)CO)[C@@H](C)O)C(=O)N1)C(=O)N[C@H]1CSSC[C@@H](C(N)=O)NC(=O)[C@@H]2CCCN2C(=O)[C@H](C(C)C)NC1=O [PnID C] (H-STCCGYRMCVPC-NH2; disulfide 3-4, 9-12; N-terminus assumed)
- IC50 [1]: > 100 µM
- IC50 [2]: > 100 µM
- IC50 [3]: > 100 µM
- activity at NET relative to ribbon isomer (in words) [3]: much less active in inhibiting the rat NET
- biological activity (in words) [3]: did not display any measurable biological activity
